From publication PMC10064330, “Reversible Dual-Covalent Molecular Locking of the 14-3-3/ERRγ Protein–Protein Interaction as a Molecular Glue Drug Discovery Approach” (Journal of the American Chemical Society, 2023) come the findings set out here.

In one experiment the target is T1, 14-3-3γ/PIN1 complex (Homo sapiens, UniProt P61981).
T1 construct: made in house; host or cells: E. coli NiCo21 (DE3)
T1 sequence (P61981 1-247): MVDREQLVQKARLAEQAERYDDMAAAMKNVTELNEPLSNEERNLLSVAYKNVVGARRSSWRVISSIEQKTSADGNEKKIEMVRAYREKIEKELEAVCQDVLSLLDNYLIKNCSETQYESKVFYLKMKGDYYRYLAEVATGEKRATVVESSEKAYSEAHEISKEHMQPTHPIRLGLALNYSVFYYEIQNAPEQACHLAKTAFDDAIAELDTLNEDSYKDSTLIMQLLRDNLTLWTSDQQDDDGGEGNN
Nature of the experiment: FA selectivity screen, PIN1 client peptide. The format is binding. To be noted: 100 μM compound, PIN1 peptide (+1 Trp). The method, then:
(§1) Drugging the hub protein 14-3-3 raises the challenge of selectivity, given that 14-3-3 binds several hundred phosphoprotein partners (Figure 4a).[54] We hypothesized that the interplay of chemical reactivity, the topology, and functionality of the composite binding pocket shaped by 14-3-3 and the interaction partner drives selective stabilization of the 14-3-3/ERRγ complex.[53] To validate selectivity, molecular locks 5 and 10 were tested against a panel of nine 14-3-3 client peptides in an FA assay, and the SF100 was determined for each 14-3-3 PPI (Figure 4b and Figures S18–S20). This client panel contained a diverse representation of 14-3-3 binding proteins, differing for example in size and hydrophobicity of the +1 amino acid. Importantly, clients PKR and RND3, each containing a +1 Cys, were included in the panel.
(§2) Figure S20. KD and SF100 plot – selectivity screen. […]
(§3) nine different client peptides in presence of DMSO (negative control) or 100 µM of compound 1, 5 or 10 (based on binding curves in Figure S19). […]
(§4) A pPROEX HTb expression vector encoding the human 14-3-3 protein gamma (14-3-3γ) with a N-terminal his6-tag was transformed by heat shock into NiCo21 (DE3) competent cells. […] Finally, the protein was concentrated to ∼60 mg/mL, analyzed Q-Tof LC/MS, and aliquots were flash-frozen for storage at −80 °C. […]

The next experiment concerns the target T2, 14-3-3γ/SOS1 complex (Homo sapiens, UniProt P61981).
T2 construct: made in house; host or cells: E. coli NiCo21 (DE3)
T2 sequence (P61981 1-247): T1 sequence (P61981 1-247)
Nature of the experiment: FA selectivity screen, SOS1 client peptide. In kind it is binding. Particulars: 100 μM compound, SOS1 peptide (+1 Ala). The method, then:
as §1, §2, §3, §4

As for `CN(C)CCSSCCN(C)C(=O)c1ccc(C=O)c(F)c1` [compound 5], the “off-target effect in client screen” value at 14-3-3γ/PIN1 complex and at 14-3-3γ/SOS1 complex was “minor off-target effects” each time.
